The format of series [1] is in vivo, Male Sprague-Dawley rats. As to conditions: rats, iv. How it is done: Male Sprague-Dawley rats (225-300 g) allowed free access to food and water were used for in vivo biodistribution studies. Kung, 1984, supra; Kung, 1985, supra. While under ether anesthesia, 0.2 mL of a saline solution containing 1.19a, 1.19b, 1.20a, 1.20b or 1.21 (50-100 μCi) was injected directly into the femoral vein of rats, and the rats were sacrificed by cardiac excision at various time points post-injection. The organs of interest were removed and weighed, and the radioactivity was counted with an automatic gamma counter (Packard 5000). The percentage dose per organ was calculated by a comparison of the tissue counts to suitably diluted aliquots of the injected material. Total activities of blood and muscle were calculated under the assumption that they were 7% and 40% of the total body weight, respectively.
(§1) The major criteria for determining the potential usefulness of in vivo dopamine transporter imaging agents are based on an animal biodistribution study. In this case, rats were used as an animal model. After an intravenous injection of the Tc-99m labeled compounds, the values of initial brain uptake (% dose/whole organ) at 2 minutes post intravenous injection are used to measure the ability to penetrate the intact blood-brain barrier. Compounds displaying higher brain uptake are the better agents (minimum requirement >0.1% dose in brain). The second criteria is the specific uptake in the striatum region of the brain, where dopamine transporters are located. The uptake value (% dose/gram) of the striatum (ST) is divided by the background area, cerebellum (CB; essentially devoid of dopamine transporter); the ratio of ST/CB is an indicator for specific uptake (minimum requirement for ST/CB >1.5). Five structurally similar tropane derivatives were examined in this biological study. (Tables 1.1 to 1.4).
Male Sprague-Dawley rats (225-300 g) that were allowed free access to food and water were used for in vivo biodistribution studies. (Kung, 1984, supra; Kung, 1985, supra). While under halothane anesthesia, 0.2 mL of a saline solution containing 3.24 to 3.34 ([…]) was injected directly into the femoral vein of rats, and they were sacrificed by cardiac excision at various time points post-injection. The organs of interest were removed and weighed, and the radioactivity was counted with an automatic gamma counter (Packard 5000). The percentage dose per organ was calculated by a comparison of the tissue counts to suitably diluted aliquots of the injected material. Total activities of blood and muscle were calculated under the assumption that they were 7% and 40% of the total body weight, respectively.

The target of series [2] is dopamine transporters (Rattus norvegicus, UniProt P23977). It is filed as in vivo, Male Sprague-Dawley rats. The following applies: rats, iv. How it is done:
For dopamine transporter imaging agents, the target area of the brain is the striatum, where dopamine transporters are highly concentrated. The cerebellum region is suitable for use as the background region, because it has no dopamine transporters. The specific uptake is measured by the ratio of % dose/gram of striatum divided by % dose/gram of cerebellum (ST/CB ratio)--the higher the value, the better the specific uptake, and the more promising as a dopamine transporter imaging agent.
(§2) Regional brain distribution in rats was obtained after an injection of 1.19a, 1.19b, 1.20a, 1.20b or 1.21. Samples from different brain regions (cortex, striatum, hippocampus, and cerebellum) were dissected, weighed and counted, and the percentage dose per gram of sample was calculated by comparing the sample counts with the count of the diluted initial dose. The uptake ratio of each region was obtained by dividing the percentage dose per gram of that region by that of the cerebellum. For blocking studies, rats were injected with either β-CIT or haloperidol (iv, 1 mg/Kg) 5 min prior to injection of 1.19a. The rats were dissected and brain tissue samples were counted as described above. The specific uptake of the compound was expressed as ratio of ST/CB (% dose/g of striatum divided by the same of cerebellum).
as §1
as §2, with “3.24 to 3.34.” for “1.19a, 1.19b, 1.20a, 1.20b or 1.21.”, “3.25.” for “1.19a.”, “above.” for “above. The specific uptake of the compound was expressed as ratio of ST/CB (% dose/g of striatum divided by the same of cerebellum).”

In series [3] the test system is dopamine transporters. The following applies: cited from earlier work; for Literature binding / localization / biodistribution, in words: in vivo; for Time for reaching optimal uptake ratio / equilibrium: basal ganglia versus frontal cortex.
Series [4] can be described thus: Partition coefficient between 1-octanol (n-octanol) and buffer. It is filed as physicochemical. As to conditions: 1-octanol/pH 7.0 phosphate buffer. How it is done:
(§3) Partition coefficients were measured by mixing each Tc-99m compound with 3 g each of 1-octanol and buffer (pH 7.0 or 7.4, 0.1 M phosphate) in a test tube. The test tube was vortexed for 3 minutes at room temperature, then centrifuged for 5 minutes. Two weighed samples (0.5 g each) from the 1-octanol and buffer layers were counted in a well counter. The partition coefficient was determined by calculating the ratio of cpm/g of octanol to that of buffer. Samples from the octanol layer were repartitioned until consistent partition coefficient values were obtained. The measurement was repeated 3 times.
as §3, with “The partition coefficient was measured” for “Partition coefficients were measured”, “mixing the” for “mixing each”, “3 min” for “3 minutes”

The test system of the next series is dopamine transporter. As to the kind of experiment: Blocking studies in rats (pretreatment or co-injection with competing agent). It is filed as in vivo, Male Sprague-Dawley rats. The following applies: 1 mg/kg iv, 5 min before tracer, rats. How it is done: as §2
as §2, with “3.24 to 3.34.” for “1.19a, 1.19b, 1.20a, 1.20b or 1.21.”, “3.25.” for “1.19a.”, “above.” for “above. The specific uptake of the compound was expressed as ratio of ST/CB (% dose/g of striatum divided by the same of cerebellum).”

Here are results for 11 molecules from US6241963A, “Dopamine and serotonin transporter ligands and imaging agents” (priority 1996, dated 2001).

“And” between values parts separate entries of the source, which are not always exact repeats. Equal values may be shown once. “Also recorded” adds a separate entry of the source. Read-outs that look alike come from different tables or passages of the source. A value given as a limit tells only on which side of the number the result lay.

Sequence of dopamine transporters (Rattus norvegicus, UniProt P23977) (P23977 whole entry): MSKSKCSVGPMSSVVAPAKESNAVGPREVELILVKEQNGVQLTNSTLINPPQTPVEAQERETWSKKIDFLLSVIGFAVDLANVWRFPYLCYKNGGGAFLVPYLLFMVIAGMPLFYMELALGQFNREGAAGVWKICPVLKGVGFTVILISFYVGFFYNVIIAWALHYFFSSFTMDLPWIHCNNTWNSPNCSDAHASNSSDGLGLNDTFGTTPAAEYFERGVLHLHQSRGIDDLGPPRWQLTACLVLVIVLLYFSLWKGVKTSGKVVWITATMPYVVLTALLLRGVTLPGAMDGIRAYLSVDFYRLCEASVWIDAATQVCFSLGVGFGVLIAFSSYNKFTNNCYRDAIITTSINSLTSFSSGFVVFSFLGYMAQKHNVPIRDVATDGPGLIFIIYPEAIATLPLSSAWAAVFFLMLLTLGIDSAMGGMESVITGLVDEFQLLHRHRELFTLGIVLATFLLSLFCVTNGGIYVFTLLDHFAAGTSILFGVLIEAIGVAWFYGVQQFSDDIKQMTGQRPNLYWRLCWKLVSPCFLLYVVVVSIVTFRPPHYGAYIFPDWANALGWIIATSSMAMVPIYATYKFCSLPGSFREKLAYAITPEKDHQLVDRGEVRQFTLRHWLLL

For the molecule `COC(=O)C1C(c2ccc(Cl)cc2)CC2CCC1N2CCC[N+]12CC[S][99Tc-]13(=[O])[S]CC[N]3CC2` (mixture of isomers) [Compound 2.6a], in series [1], the “Brain uptake, 2 min” value is listed as 0.27 ± 0.02 % dose/organ and the “Brain uptake, 30 min” value amounted to 0.11 ± 0.02 % dose/organ. The “Brain uptake and specific striatal uptake, in words” value on dopamine transporters [2] is “displayed a significant brain uptake and specific uptake to the striatum area of the rat brain”.
As to `CN1[C@H]2CC[C@@H]1[C@@H](C[N+]13CC[S][99Tc-]14(=[O])[S]CC[N]4CC3)[C@@H](c1ccc(Cl)cc1)C2` (single isomer, unassigned; peak a) [Peak A (1.19a)], in series [1], the “Blood uptake, 2 min” value is on record as 1.98 ± 0.19 % dose/organ; the “Brain uptake, 2 min” value is 0.5 % dose/organ and 0.50 ± 0.06 % dose/organ; the “Heart uptake, 2 min” value is 1.76 ± 0.09 % dose/organ; the “Kidney uptake, 2 min” value was 5.47 ± 1.04 % dose/organ. Moreover, in series [1], the “Liver uptake, 2 min” value came out at 9.55 ± 2.19 % dose/organ; the “Lung uptake, 2 min” value is 9.68 ± 0.51 % dose/organ; the “Muscle uptake, 2 min” value worked out at 33.61 ± 4.31 % dose/organ; the “Skin uptake, 2 min” value is given as 2.73 ± 0.39 % dose/organ. In series [1], the “Spleen uptake, 2 min” value is listed as 0.27 ± 0.04 % dose/organ; the “Blood uptake, 60 min” value worked out at 1.00 ± 0.15 % dose/organ; the “Brain uptake, 60 min” value worked out at 0.21 ± 0.01 % dose/organ; the “Heart uptake, 60 min” value came out at 0.21 ± 0.00 % dose/organ. In series [1], the “Kidney uptake, 60 min” value was 2.04 ± 0.21 % dose/organ; the “Liver uptake, 60 min” value worked out at 17.75 ± 1.81 % dose/organ; the “Lung uptake, 60 min” value is given as 3.06 ± 0.28 % dose/organ; the “Muscle uptake, 60 min” value worked out at 14.98 ± 0.49 % dose/organ. In series [1], the “Skin uptake, 60 min” value was 3.56 ± 0.65 % dose/organ and the “Spleen uptake, 60 min” value is listed as 0.46 ± 0.18 % dose/organ. Besides, on dopamine transporters [2], the “ST/CB ratio, 60 min” value stood at 2.72.
`CN1[C@H]2CC[C@@H]1[C@@H](C[N+]13CC[S][99Tc-]14(=[O])[S]CC[N]4CC3)[C@@H](c1ccc(Cl)cc1)C2` (single isomer, unassigned; peak b) [peak B (1.19a)]: in series [1], the “Blood uptake, 2 min” value is given as 4.02 ± 0.20 % dose/organ; the “Brain uptake, 2 min” value came out at 0.28 ± 0.01 % dose/organ; the “Heart uptake, 2 min” value is recorded as 1.28 ± 0.15 % dose/organ; the “Kidney uptake, 2 min” value was determined as 4.47 ± 0.69 % dose/organ. In series [1], the “Liver uptake, 2 min” value is given as 9.07 ± 1.66 % dose/organ; the “Lung uptake, 2 min” value is listed as 6.00 ± 1.11 % dose/organ; the “Muscle uptake, 2 min” value came to 41.46 ± 11.33 % dose/organ; the “Skin uptake, 2 min” value is reported as 3.43 ± 0.62 % dose/organ. For the same molecule, in series [1], the “Spleen uptake, 2 min” value was 0.27 ± 0.03 % dose/organ; the “Blood uptake, 60 min” value came to 1.89 ± 0.21 % dose/organ; the “Brain uptake, 60 min” value was found to be 0.12 ± 0.02 % dose/organ; the “Heart uptake, 60 min” value is reported as 0.19 ± 0.06 % dose/organ. Moreover, in series [1], the “Kidney uptake, 60 min” value is given as 1.87 ± 0.80 % dose/organ; the “Liver uptake, 60 min” value amounted to 18.71 ± 2.54 % dose/organ; the “Lung uptake, 60 min” value is 1.23 ± 0.89 % dose/organ; the “Muscle uptake, 60 min” value was determined as 8.60 ± 2.51 % dose/organ. For the same molecule, in series [1], the “Skin uptake, 60 min” value is reported as 4.11 ± 0.62 % dose/organ and the “Spleen uptake, 60 min” value turned out to be 0.41 ± 0.24 % dose/organ. The “Brain uptake, 2 min” value in series [1] (listed as Peak B) came to 0.28 % dose/organ. Further, on dopamine transporters [2], the “ST/CB ratio, 60 min” value is recorded as 3.79.
`COC(=O)[C@H]1[C@@H](c2ccc(F)cc2)C[C@@H]2CC[C@H]1N2C` [CFT (WIN35,428)]: the “Literature binding / localization / biodistribution, in words” value with dopamine transporters [3] is “much higher binding affinity and selectivity to dopamine reuptake sites”.
For the molecule `CN1[C@H]2CC[C@@H]1[C@@H](C(=O)[N+]13CC[S][99Tc-]14(=[O])[S]CC[N]4CC3)[C@@H](c1ccc(Cl)cc1)C2` (some centres unmarked) [Compound 1.19b], the “Partition coefficient (P.C.), 1-octanol/pH 7.0 buffer” value in series [4] stood at 230. Further, in series [1], the “Brain uptake, 2 min” value is reported as 0.39 ± 0.12 % dose/organ; the “Brain uptake, 30 min” value worked out at 0.21 ± 0.03 % dose/organ; the “Brain uptake, 60 min” value is listed as 0.11 ± 0.02 % dose/organ. The “ST/CB ratio, 30 min” value at dopamine transporters [2] (30 min) stood at 2.78. Moreover, the “ST/CB ratio, 60 min” value on dopamine transporters [2] was 2.78 and 2.78 ± 0.32.
As to `CN1[C@H]2CC[C@@H]1[C@@H](C[N+]13CC[S][99Tc-]14(=[O])[S]CC[N]4CC3)[C@@H](c1ccc(Br)cc1)C2` (some centres unmarked) [Compound 1.20c], in series [1], the “Brain uptake, 2 min” value came out at 0.41 ± 0.03 % dose/organ and the “Brain uptake, 60 min” value amounted to 0.18 ± 0.01 % dose/organ. Moreover, on dopamine transporters [2], the “Brain uptake and specific striatal uptake, in words” value is “high initial uptake and high specific retention in brain”; the “ST/CB ratio, 60 min” value was 2.82 and 2.82 ± 0.19.
As to `COC(=O)C1C(c2ccc(F)cc2)CC2CCC1N2CCCN(CC[S-])CC([O-])=NCC[S-].[O]=[99Tc+3]` (centres unmarked) [Technepine], the “Literature binding / localization / biodistribution, in words” value in the series with dopamine transporters [3] is given as “poor biodistribution”; with dopamine transporters [3] (listed as technepine), “less favorable biological properties”.
Turning to `COC(=O)[C@H]1[C@@H](c2ccc([123I])cc2)C[C@@H]2CC[C@H]1N2CCCF` [[^123 I]-β-CIT-FP], the “Time for reaching optimal uptake ratio / equilibrium” value with dopamine transporters [3] is reported as “less than one hour”.
On to `COC(=O)[C@H]1[C@@H](OC(=O)c2ccccc2)C[C@@H]2CC[C@H]1N2C` [cocaine], for which the “Literature binding / localization / biodistribution, in words” value in the series with dopamine transporters [3] was “largely concentrated in the basal ganglia”.
`O=C(CCCN1CCC(O)(c2ccc(Cl)cc2)CC1)c1ccc(F)cc1` [haloperidol, reference compound]: the “Effect of pretreatment on specific striatal uptake of tracer” value in the series on dopamine transporter was “no blocking effect was observed”.
Consider `COC(=O)[C@H]1[C@@H](c2ccc(I)cc2)C[C@@H]2CC[C@H]1N2C` [β-CIT, N-methyl-2b-carbomethoxy-3b-(4-iodophenyl)tropane, reference compound], for which the “Effect of pretreatment on specific striatal uptake of tracer” value with dopamine transporter is given as “could be blocked; also recorded: showed blocking of the specific uptake”; in the series on dopamine transporter (listed as RTI-55), “could be blocked”. The “Time for reaching optimal uptake ratio / equilibrium” value with dopamine transporters [3] is over 18 h. Further, in the series with dopamine transporters [3], the “Literature binding / localization / biodistribution, in words” value was “much higher binding affinity and selectivity to dopamine reuptake sites”.
